From patent US20100298141A1, “SUBSTITUTED PYRIDINE N-OXIDE HERBICIDES” (E. I. DU PONT DE NEMOURS AND COMPANY, priority 2007, published 2010)

Legend:
barnyardgrass [1] = test: Test A pre-/postemergence greenhouse test; assay type: in vivo, Echinochloa crus-galli; conditions: for Plant response rating, Barnyardgrass: 0 to 100 scale where 0 is no effect and 100 is complete control; for Barnyardgrass plant response rating: 0 to 100 scale
Description: (§1) Seeds of barnyardgrass (Echinochloa crus-galli), crabgrass (Digitaria sanguinalis), giant foxtail (Setaria faberi), morningglory (Ipomoea spp.), redroot pigweed (Amaranthus retroflexus), velvetleaf (Abutilon theophrasti), wheat (Triticum aestivum), and corn (Zea mays) were planted into a blend of loam soil and sand and treated preemergence with a directed soil spray using test compounds formulated in a non-phytotoxic solvent mixture which included a surfactant. At the same time these species were also treated with postemergence applications of test compounds formulated in the same manner. Plants ranged in height from two to ten cm and were in the one- to two-leaf stage for the postemergence treatment. Treated plants and untreated controls were maintained in a greenhouse for approximately ten days, after which time all treated plants were compared to untreated controls and visually evaluated for injury. […] A dash (-) response means no test results.

wheat = test: Test A pre-/postemergence greenhouse test; assay type: in vivo, Triticum aestivum; conditions: for Plant response rating, Wheat: 0 to 100 scale where 0 is no effect and 100 is complete control; for Wheat plant response rating: 0 to 100 scale
Description: as §1

corn = test: Test A pre-/postemergence greenhouse test; assay type: in vivo, Zea mays; conditions: for Plant response rating, Corn: 0 to 100 scale where 0 is no effect and 100 is complete control; for Corn plant response rating: 0 to 100 scale
Description: as §1

crabgrass = test: Test A pre-/postemergence greenhouse test; assay type: in vivo, Digitaria sanguinalis; conditions: for Plant response rating, Crabgrass, Large: 0 to 100 scale where 0 is no effect and 100 is complete control; for Crabgrass, Large plant response rating: 0 to 100 scale
Description: as §1

giant foxtail = test: Test A pre-/postemergence greenhouse test; assay type: in vivo, Setaria faberi; conditions: for Plant response rating, Foxtail, Giant: 0 to 100 scale where 0 is no effect and 100 is complete control; for Foxtail, Giant plant response rating: 0 to 100 scale
Description: as §1

morningglory = test: Test A pre-/postemergence greenhouse test; assay type: in vivo, Ipomoea spp.; conditions: for Plant response rating, Morningglory: 0 to 100 scale where 0 is no effect and 100 is complete control; for Morningglory plant response rating: 0 to 100 scale
Description: as §1

velvetleaf = test: Test A pre-/postemergence greenhouse test; assay type: in vivo, Abutilon theophrasti; conditions: for Plant response rating, Velvetleaf: 0 to 100 scale where 0 is no effect and 100 is complete control; for Velvetleaf plant response rating: 0 to 100 scale
Description: as §1

rice = test: Test C flooded paddy test; assay type: in vivo, Oryza sativa; conditions: Flood
Description: (§2) At time of treatment, test pots were flooded to 3 cm above the soil surface, treated by application of test compounds directly to the paddy water, and then maintained at that water depth for the duration of the test. Treated plants and controls were maintained in a greenhouse for 13 to 15 days, after which time all species were compared to controls and visually evaluated. […] A dash (-) response means no test result.

redroot pigweed = test: Test A pre-/postemergence greenhouse test; assay type: in vivo, Amaranthus retroflexus; conditions: for Plant response rating, Pigweed: 0 to 100 scale where 0 is no effect and 100 is complete control; for Pigweed plant response rating: 0 to 100 scale
Description: as §1

duck salad = test: Test C flooded paddy test; assay type: in vivo, Heteranthera limosa; conditions: Flood
Description: as §2

umbrella sedge = test: Test C flooded paddy test; assay type: in vivo, Cyperus difformis; conditions: Flood
Description: as §2

barnyardgrass [2] = test: Test C flooded paddy test; assay type: in vivo, Echinochloa crus-galli; conditions: Flood
Description: as §2

[3] = Postemergence, 500 g ai/ha, 0 is no effect, 100 is complete control
[4] = Preemergence, 125 g ai/ha, 0 no effect, 100 complete control
[5] = 31 g ai/ha, scale 0 to 100 (0 no effect, 100 complete control)
[6] = 62 g ai/ha, scale 0 to 100, 0 no effect, 100 complete control, 13 to 15 days
[7] = 125 g ai/ha, scale 0 to 100, 0 no effect, 100 complete control, 13 to 15 days
[8] = 250 g ai/ha, scale 0 to 100, 0 no effect, 100 complete control, 13 to 15 days

Structure (SMILES): CC(c1c(C(F)(F)F)nn(CC(F)(F)F)c1Cl)S(=O)(=O)c1ccc(Cl)c[n+]1[O-] (centres unmarked) [Compound 55]
- Plant response rating, Barnyardgrass (barnyardgrass [1]; Postemergence, 125 g ai/ha): 40
- Barnyardgrass plant response rating (barnyardgrass [1]; [3]): 80
- Barnyardgrass plant response rating (barnyardgrass [1]; [4]): 30
- Plant response rating, Barnyardgrass (barnyardgrass [1]; Preemergence, 500 g ai/ha): 100
- Plant response rating, Wheat (wheat; Postemergence, 125 g ai/ha): 0
- Wheat plant response rating (wheat; [3]): 0
- Wheat plant response rating (wheat; [4]): 0
- Plant response rating, Wheat (wheat; Preemergence, 500 g ai/ha): 0
- Plant response rating, Corn (corn; Postemergence, 125 g ai/ha): 0
- Corn plant response rating (corn; [3]): 0
- Corn plant response rating (corn; [4]): 0
- Plant response rating, Corn (corn; Preemergence, 500 g ai/ha): 0
- Plant response rating, Crabgrass, Large (crabgrass; Postemergence, 125 g ai/ha): 50
- Crabgrass, Large plant response rating (crabgrass; [3]): 80
- Crabgrass, Large plant response rating (crabgrass; [4]): 80
- Plant response rating, Crabgrass, Large (crabgrass; Preemergence, 500 g ai/ha): 90
- Plant response rating, Foxtail, Giant (giant foxtail; Postemergence, 125 g ai/ha): 70
- Foxtail, Giant plant response rating (giant foxtail; [3]): 80
- Foxtail, Giant plant response rating (giant foxtail; [4]): 60
- Plant response rating, Foxtail, Giant (giant foxtail; Preemergence, 500 g ai/ha): 90
- Plant response rating, Morningglory (morningglory; Postemergence, 125 g ai/ha): 0
- Morningglory plant response rating (morningglory; [3]): 50
- Morningglory plant response rating (morningglory; [4]): 0
- Plant response rating, Morningglory (morningglory; Preemergence, 500 g ai/ha): 50
- Plant response rating, Velvetleaf (velvetleaf; Postemergence, 125 g ai/ha): 0
- Velvetleaf plant response rating (velvetleaf; [3]): 30
- Velvetleaf plant response rating (velvetleaf; [4]): 0
- Plant response rating, Velvetleaf (velvetleaf; Preemergence, 500 g ai/ha): 0
- Plant response rating, Rice (rice; [5]): 0
- Plant response rating, Rice (rice; [6]): 0
- Plant response rating, Rice (rice; [7]): 0
- Plant response rating, Rice (rice; [8]): 20
- Plant response rating, Pigweed (redroot pigweed; Postemergence, 125 g ai/ha): 0
- Pigweed plant response rating (redroot pigweed; [3]): 30
- Pigweed plant response rating (redroot pigweed; [4]): 90
- Plant response rating, Pigweed (redroot pigweed; Preemergence, 500 g ai/ha): 100
- Plant response rating, Ducksalad (duck salad; [5]): 0
- Plant response rating, Ducksalad (duck salad; [6]): 40
- Plant response rating, Ducksalad (duck salad; [7]): 60
- Plant response rating, Ducksalad (duck salad; [8]): 60
- Plant response rating, Sedge, Umbrella (umbrella sedge; [5]): 0
- Plant response rating, Sedge, Umbrella (umbrella sedge; [7]): 65
- Plant response rating, Sedge, Umbrella (umbrella sedge; [8]): 75
- Plant response rating, Barnyardgrass (barnyardgrass [2]; [5]): 0
- Plant response rating, Barnyardgrass (barnyardgrass [2]; [6]): 0
- Plant response rating, Barnyardgrass (barnyardgrass [2]; [7]): 0
- Plant response rating, Barnyardgrass (barnyardgrass [2]; [8]): 0
